Patent US9375450B2, “Vaginal tissue rejuvenation compositions and methods” (priority 2011, dated 2016)

How the values were obtained:
[1] = test system: ovariectomized (OVX) Sprague-Dawley rats; test: Macroscopic measurements (genital hiatus, vaginal length) after 2 weeks vaginal suppositories; type: in vivo, rat; details: vaginal suppositories 2 weeks (20 μM zinc sulfate, 10 nM GW501516, 0.01% estradiol), mean±SD
Procedure: (§1) Ten to 12-weeks old female ovariectomized (OVX) Sprague-Dawley rats were utilized for the experiments. The animals were acclimatized to the environmental conditions before starting the experiment. The animals were housed individually and were allowed free access to water and rodent food. […] The suppositories were prepared according to the fusion method, using a polypeg suppository base ([…]., USA). […] Using a microwave, the suppository base was melted in a small beaker for 3 min and then transferred and kept into a water bath at a temperature of 55° C. The proper amount of above reagent was added to the liquefied base and meticulously crushed with a smooth rounded-end glass rod for about 20 min to make the solution to be even and clear. A pipette tip was used to suck some amount of solution and push it into a plastic tube with a diameter of 3.5 mm, and the tube was immediately left on the flat surface of an ice bucket. The suppository turned to white in color when it was solid. The moulded suppository was then pushed out of the tube using a round rod. […] After 30 min of cooling at room temperature, the suppositories were stored at 4° C. in a closed chamber until use. They were left to reach room temperature before use. The day after the last treatment the rats were overnight fasted and then sacrificed. Macroscopic measurement (genital hiatus, vaginal length) were taken and the vagina was dissected out carefully to avoid any injury to the vagina. The mid section of the vagina was utilized for histology (H and E stain, Masson's trichrome stain) and immunofluorescence and the rest of the vagina was used for RNA extraction and RT-PCR.

[2] = test system: ovariectomized (OVX) Sprague-Dawley rats; test: Vaginal histology and histomorphometry after 2 weeks vaginal suppositories; type: in vivo, rat; details: vaginal suppositories 2 weeks
Procedure: as §1, with “RT-PCR. […] For each animal, a 4 μm-thick paraffin section was cut and stained with haematoxylineosin and with Masson's trichrome stain for morphological examination. […] The cornification was determined by the presence of a keratin layer on the vaginal epithelium. Measurements of the different vaginal layers were performed on the fifth segment of the vagina, which is approximately halfway between the middle region and the portio vaginalis uteri. […] Images were captured with a color digital camera and quantified using ImageJ software was used. […] The thickness of the lamina propria was obtained by deducting the thickness of the epithelium and muscularis from total vaginal thickness.” for “RT-PCR.”

[3] = test system: rat vaginal Col1a1, Col3a1, Col5a1 mRNA; test: qRT-PCR of vaginal collagen gene expression after 2 weeks vaginal suppositories; type: in vivo; details: OVX rats, vaginal suppositories 2 weeks, mean±SD
Text: Ten to 12-weeks old female ovariectomized (OVX) Sprague-Dawley rats were utilized for the experiments. The animals were acclimatized to the environmental conditions before starting the experiment. The animals were housed individually and were allowed free access to water and rodent food. Two weeks after the ovariectomy rats (n=36) were divided into five groups: control (receiving placebo suppositories, n=8), Zinc (receiving zinc sulfate containing suppositories, n=8), GW (receiving GW501516 containing suppositories, n=8), Zinc with GW (receiving Zinc with GW 501516 containing suppositories, n=8) and Estradiol (receiving estradiol containing suppositories, n=4).
The suppositories were prepared according to the fusion method, using a polypeg suppository base (MEDISCA, N.Y., USA). […] Using a microwave, the suppository base was melted in a small beaker for 3 min and then transferred and kept into a water bath at a temperature of 55° C. The proper amount of above reagent was added to the liquefied base and meticulously crushed with a smooth rounded-end glass rod for about 20 min to make the solution to be even and clear. A pipette tip was used to suck some amount of solution and push it into a plastic tube with a diameter of 3.5 mm, and the tube was immediately left on the flat surface of an ice bucket. The suppository turned to white in color when it was solid. The moulded suppository was then pushed out of the tube using a round rod. The moulded suppository was cut using a razor blade to a length of 1.2 cm each, which was calibrated to equal a volume of 50±5 μl per each suppository. After 30 min of cooling at room temperature, the suppositories were stored at 4° C. in a closed chamber until use. They were left to reach room temperature before use.
Total RNA was isolated from 20 mg of vaginal rat tissue in each experimental rat group using the RNeasy Mini kit (Qiagen) according to the manufacturer's specifications. For each total RNA preparation, DNase digestion was performed to remove contaminating genomic DNA. Total RNA samples from each tissue were quantified and evaluated for RNA integrity by the Agilent Bioanalyzer 2100 (Applied Biosystems, Foster City Calif., USA). Following RNA extraction, cDNA was reverse transcribed from ˜500 ng of each total RNA preparation using the qScript cDNA synthesis kit (Quanta Biosciences, Gaithersburg Md., USA). Finally, cDNA samples were used to perform gene expression analysis by qRT-PCR using SYBR Green technology on the RealPlex EP Mastercycler (Eppendorf, Germany) of five genes with known roles in vaginal tissue reconstruction: Collagen IaI (col 1a1), Collagen IIIaI (col 3a1), Collagen VaI (col 5a1), Elastin (eln), Tensin I (tns-1). Glyceraldehyde-3 Phosphate Dehydrogenase (gapdh) was used as a positive control to normalize the expression of each gene. Each qRT-PCR reaction was run in triplicate using Perfecta SYBR Green Supermix (Quanta Biosciences, Gaithersburg Md., USA) in 25 μL reaction volumes using a final concentration of 300 nM forward and reverse primers. For each of the genes analyzed in this study, primers were designed using Primer-BLAST software (NCBI) and synthesized by IDT Technologies (San Diego, Calif.).

[4] = test system: rat vaginal Collagen I, Collagen III, Collagen V protein; test: Immunofluorescence of vaginal collagen protein expression after 2 weeks vaginal suppositories; type: in vivo; details: OVX rats, vaginal suppositories 2 weeks, mean±SD
Procedure: as §1, with “RT-PCR. Samples were incubated with three different antibodies, collagen I, III and anti-actin or collagen I and V and anti-actin. Frozen tissues samples were cut into sections of 6 μm and fixed for 10 min with acetone, followed by five washes of phosphate-buffered saline (PBS). […] After that, sections were incubated with the secondary antibody for one hour in the dark, at room temperature, followed by five washes of PBS. […] Alexa Fluor 405 Goat Anti-Mouse IgG (1:400) (Invitrogen); Cy3-AffiniPure Goat Anti-Mouse IgM (1:400) (Jackson ImmunoResearch Laboratories, West Grove, Pa.); Alexa Fluor 647 (1;200) phalloidin (Invitrogen). […] Four images were obtained per section. Images were capture with an Orca II-ERG 12 bitt CCD camera in a Zeiss Apotome microscope with a 20× objective. The data was analyzed using Matamorph version 7.7.4 software. Results are represented as mean pixel intensity ratios per square area.” for “RT-PCR.”

SMILES: C[C@]12CC[C@@H]3c4ccc(O)cc4CC[C@H]3[C@@H]1CC[C@@H]2O [Estradiol]
- genital hiatus (distance between the external urethral meatus and the mid anus) ([1]; placebo 12.6±1.1): 16.0±1.4 mm
- vaginal length ([1]; placebo 14.1±1.1): 18.7±1.5 mm
- vaginal epithelial thickness ([2]; mean±SD, placebo 57±18): 140±54 μm
- vaginal muscularis thickness ([2]; mean±SD, placebo 121±44): 124±53 μm
- vaginal lamina propria thickness ([2]; mean±SD, placebo 179±71): 152±80 μm
- vaginal thickness (all three layers of the vagina) ([2]; mean±SD, placebo 358±86): 417±82 μm
- vaginal epithelial cornification rate ([2]; placebo 0%): 100%
- lamina propria collagen fiber compactness ([2]; scale 0-5 (0=loose, 5=tight), mean±SD, placebo 4.5±0.6): 1.6±0.6 relative units
- ratio of vaginal Col1a1 to Col3a1 mRNA expression ([3]; placebo 0.78±0.2): 0.70±0.4 relative units
- ratio of vaginal Col1a1 to Col5a1 mRNA expression ([3]; placebo 4.3±1.9): 5.3±1.2 relative units
- ratio of vaginal Collagen I to Collagen III protein expression ([4]; placebo 1.16±0.2): 1.08±0.2 relative units
- ratio of vaginal Collagen I to Collagen V protein expression ([4]; placebo 1.28±0.3): 1.74±0.5 relative units
